This assay has as its system wheat leaf rust. Nature of the assay: Toxicity test of benzisothiazolinone combined with flutriafol (bioassay). In kind it is in vivo. The settings on record: for ATI (actual toxicity index): (EC50 of standard/EC50 of test agent)*100, flutriafol as standard; for EC50: median inhibition concentration from control effect, least square method.

Read-outs that look alike come from different tables or passages of the source.

On to `O=c1[nH]sc2ccccc12` [Benzisothiazolinone, benzisothiazolinone], for which the “ATI (actual toxicity index)” value was 167.39 and the EC50 – broadly, the concentration giving half of the maximal effect – is 40.23 µg/mL.

As to `OC(Cn1cncn1)(c1ccc(F)cc1)c1ccccc1F` (stereo not shown) [Flutriafol, flutriafol], the “ATI (actual toxicity index)” value came out at 100.00. Besides, the EC50 (Puccinia triticina, read-out: EC50) is 67.3 µg/mL.

(Values after patent US11219213B2, “Fungicidal composition” (ADAMA HUIFENG (JIANGSU) LTD., priority 2016, dated 2022).)
